The structures appear in SMILES notation. Values joined by “and” are separate entries in the source; they are usually repeats but may differ in a detail not shown here. Equal entries are not always repeated. Where two headings read alike, the source gives them in different places.

Results on eight compounds are retold here after patent publication US8450479B2, “3-substituted-4-oxo-3,4-dihydro-imidazo[5,1-d][1,2,3,5-tetrazine-8-carboxylic acid amides and their use” (Pharminox Limited, priority 2007, dated 2013).

Common to all, as to assay type: cell-based
Experiment [1] deals with range of other cell lines (e.g., colon, melanoma). Kind of experiment: MTT assay, other cell lines. Particulars: for activity in words: other lines (e.g., colon, melanoma). From the text: This assay was first described in Mosmann, T., 1983, “Rapid colorimetric assay for cellular growth and survival: Application to proliferation and cytotoxicity assays”, Journal of Immunological Methods, Vol. 65, Nos. 1-2, pp. 55-63.
Glioma cell lines, SNB19 and U373, both MGMT transfected (i.e., SNB19M and U373M) and vector controls (i.e., SNB19V and U373V); colorectal carcinoma cell lines, HCT116, HT29, and DLD1; melanoma cell line, SKMEL-28; breast cell line, MCF-7; and normal human fetal lung fibroblast cell line, MRC-5; were harvested at 60-80% confluence—during the logarithmic phase of growth.
Following harvesting, cells in suspension were gently syringed through a 23 gauge needle to obtain a near-single cell suspension. The desired cell seeding densities were used and added into 96-well plates in 180 μL culture medium if only one test compound was to be added, or 160 μL if two test compounds were to be added in combination, which were allowed to attach at 37° C. (5% CO2) overnight. For the 7 day assay, the cell seeding density for different cell lines was as follows: SNB19V, SNB19M: 650 cells/well; U373V, U373M: 650 cells/well; SNB19VR, U373VR: 650 cells/well; HCT116, DLD-1, SKMEL-28, MRC-5, MCF-7: 400 cells/well.
The two peripheral lanes were used as blank wells (cell free) and filled with 200 μL of medium in order to minimise medium evaporation from the plate. A separate time zero (T0) plate was set up alongside other plates. Serial dilutions in tissue culture medium of a 100 mM stock of test compound in DMSO were prepared immediately before each assay to ten times the final concentrations required, and then 20 μL was added to each well (200 μL total media per well) to achieve final concentrations of 0.5 μM, 1 μM, 5 μM, 10 μM, 50 μM, 100 μM, 500 μM, and 1000 μM. A minimum of four wells received the same test compound concentration. To control wells, including those in the T0 plate, 20 μL of medium was added. Previous assays had been carried out to verify that cell viability was not affected by the amount of DMSO added into the test compound-treated wells. A separate plate treated in the same way, but free of test compound, was used as a measure of cell viability at the time of drug addition (day 0).
After incubation at 37° C., 5% CO2 for 7 days (or immediately for the day 0 plate), cell viability was quantified using the MTT assay. 50 μL of sterile filtered MIT (3-(4,5-dimethylthiazol-2-yl)-2,5-diphenyltetrazolium bromide) (2 mg/mL in phosphate buffered saline) were added to each well (final concentration 0.4 mg/mL) and the plates were re-incubated for 4 hours to allow metabolic conversion of MTT by dehydrogenases in viable cells to insoluble formazan crystals. The medium and any unconverted MTT was aspirated, 150 μL of DMSO was added to each well, and the plates were shaken on a plate shaker (Stuart Scientific 503) to ensure complete formazan solubilisation.
The intensity of absorbance is directly proportional to cell viability. A linear relationship exists between cell number and the amount of formazan and so the mean absorbance determined for each well of the same concentration can be used as a quantitative measure of viable cells compared to the controls. A graph of absorbance against drug concentration was plotted and the test compound concentration (GI50) causing 50% inhibition of control cell growth (absorbance increase from day 0) was calculated by interpolation.
On the technique in general: Formazan colour is commonly taken as a measure of viable cells.

Experiment [2] concerns Colon HT29 (MMR proficient). Put plainly: MTT assay for 7-day toxicity assay. The method, boiled down: (§1)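 Cells seeded at 400 cells/well, attached overnight, then exposed to compound at 0.5–1000 μM final for 7 days at 37 °C, 5% CO2. Viability read by MTT, with a day-0 plate fixed at drug addition as reference.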
In experiment [3] the test system is Glioma U373VR (MGMT low) (TMZ resistant). Put plainly: MTT assay for 7-day toxicity assay.
Experiment [4] deals with Melanoma SKMEL-28 (MMR proficient). Put plainly: MTT assay for 7-day toxicity assay. In short, it runs like this:
as §1

For experiment [5], the system named is Breast MCF-7 (MMR proficient). Kind of experiment: MTT assay for 7-day toxicity assay. The method, boiled down: as §1
The mark [6] stands for this setting: Homo sapiens, HT-29, 168 h, Colon HT29 (MMR proficient), 7-day MTT, single determinations, read-out: GI50.
Setting [7] is: 168 h, Glioma U373VR (MGMT low, TMZ resistant), 7-day MTT, single determinations, read-out: GI50.
Setting [8] is: Homo sapiens, SK-MEL-28, 168 h, Melanoma SKMEL-28 (MMR proficient), 7-day MTT, single determinations, read-out: GI50.
Where [9] appears, read: Glioma U373VR (MGMT low, TMZ resistant), 7-day MTT, single determinations, read-out: GI50.
[10] abbreviates: Melanoma SKMEL-28 (MMR proficient), 7-day MTT, single determinations, read-out: GI50.
Where [11] appears, read: Colon HT29 (MMR proficient), read-out: GI50.
[12] abbreviates: Homo sapiens, HT-29, Colon HT29 (MMR proficient), read-out: GI50.
Setting [13] is: Homo sapiens, SK-MEL-28, Melanoma SKMEL-28 (MMR proficient), read-out: GI50.
Setting [14] is: Melanoma SKMEL-28 (MMR proficient), read-out: GI50.
Where [15] appears, read: Homo sapiens, MCF7, Breast MCF-7 (MMR proficient), read-out: GI50.
Setting [16] is: Glioma U373VR (MGMT low) (TMZ resistant), read-out: GI50.

As usually defined, the GI50 is the concentration that inhibits growth by half. With `C#CCn1nnc2c(C(N)=O)ncn2c1=O` [EE-001, 3-Propargyl-8-carbamoylimidazotetrazin-4-one], the activity in words result in experiment [1] was “more potent than TMZ”. Besides, the concentration for 50% growth inhibition (GI50) in experiment [2] (setting [6]) stood at 21.1 µM; in experiment [3] (setting [7]), 40.3 µM; in experiment [4] (setting [8]), 48.5 µM.

For the compound `C[S+]([O-])Cn1nnc2c(C(N)=O)ncn2c1=O` (centres unmarked) [UU-003, 3-Methanesulfinylmethyl-4-oxo-3,4-dihydro-imidazo[5,1-d][1,2,3,5]tetrazine-8-carboxylic acid amide], the activity in words result in experiment [1] is “surprising efficacy”.

`CCOC(=O)Cn1nnc2c(C(N)=O)ncn2c1=O` [PX-016]: the GI50 amounted to 57.5 µM in experiment [3] (setting [7]), 71.1 µM in experiment [3] (setting [9]), 92.8 µM in experiment [4] (setting [8]) and 91.3 µM in experiment [4] (setting [10]).

As for `COCn1nnc2c(C(N)=O)ncn2c1=O` [PX-020], the GI50 is 49.8 µM in experiment [2] (setting [11]); 59.4 µM in experiment [2] (setting [12]); 56.1 µM in experiment [4] (setting [13]); 55.1 µM in experiment [4] (setting [14]); 33.4 µM in experiment [5] (setting [15]).

For `NC(=O)c1ncn2c(=O)n(CCl)nnc12` [PX-030], the concentration for 50% growth inhibition (GI50) in experiment [3] (setting [16]) was 28.9 µM and 34.5 µM.

Take `Cn1nnc2c(C(N)=O)ncn2c1=O` [TMZ, 3-Methyl-4-oxo-3,4-dihydro-imidazo[5,1-d][1,2,3,5]tetrazine-8-carboxylic acid amide, reference compound]: the GI50 was 200 to 700 µM in experiment [1] (range of other cell lines (Table 1)); 578 µM in experiment [2] (Colon HT29 (MMR proficient), 7-day MTT, single determinations, read-out: GI50); 702 µM in experiment [2] (setting [6]); 640 µM in experiment [2] (Homo sapiens, HT-29, Colon HT29 (MMR proficient), average of Table 1, read-out: TMZ GI50 Average); 640 µM in experiment [2] (setting [12]); 316 µM in experiment [3] (setting [7]). Besides, the GI50 was 289 µM in experiment [3] (setting [16]); 293 µM and 234 µM and 328 µM and 299 µM and 258 µM and 326 µM and 257 µM in experiment [3] (setting [9]); 289 µM in experiment [3] (Glioma U373VR (MGMT low, TMZ resistant), average of Table 1, read-out: TMZ GI50 Average); 419 µM in experiment [4] (setting [8]); 431 µM in experiment [4] (Homo sapiens, SK-MEL-28, Melanoma SKMEL-28 (MMR proficient), average of Table 1, read-out: TMZ GI50 Average); 431 µM in experiment [4] (setting [13]). For the same compound, the GI50 amounted to 443 µM in experiment [4] (setting [10]); 424 µM in experiment [5] (Breast MCF-7 (MMR proficient), 7-day MTT, single determinations); 342 µM in experiment [5] (Homo sapiens, MCF7, 168 h, Breast MCF-7 (MMR proficient), 7-day MTT, single determinations); 383 µM in experiment [5] (Homo sapiens, MCF7, read-out: TMZ GI50 Average, Breast MCF-7 (MMR proficient), average of Table 1); 383 µM in experiment [5] (Homo sapiens, MCF7, Breast MCF-7 (MMR proficient)).

With `C[C@H](c1ccccc1)n1nnc2c(C(N)=O)ncn2c1=O` [BB-001, (R)-3-(-1-Phenylethyl)-8-carbamoylimidazotetrazin-4-one], the concentration for 50% growth inhibition (GI50) in experiment [3] (setting [7]) stood at 63.7 µM.

Turning to `C[Si](C)(C)CCOCn1nnc2c(C(N)=O)ncn2c1=O` [PX-021], the concentration for 50% growth inhibition (GI50) in experiment [2] (setting [11]) came out at 55.8 µM; in experiment [2] (setting [12]), 58.5 µM; in experiment [4] (setting [13]) it was 47.1 µM; in experiment [4] (setting [14]) it was 56.8 µM; in experiment [5] (setting [15]), 30.3 µM.
